Results on twelve molecules are retold here after ChEMBL document CHEMBL3045903, “Computational evaluation and experimental verification of antibacterial activity of some -lactams: advantages and limitations” (2013).

Type in all cases: functional
One test deals with Klebsiella pneumoniae. Description: Antibacterial activity against Klebsiella pneumoniae by disk diffusion method. Background: A growth-free zone around the sample is the usual read-out of agar diffusion tests.
Another test relates to Escherichia coli. Description: Antibacterial activity against Escherichia coli by disk diffusion method.
The next test concerns Bacillus subtilis. Put plainly: Antibacterial activity against Bacillus subtilis by disk diffusion method.
The test system of another test is Staphylococcus. Put plainly: Antibacterial activity against Staphylococcus citrus by disc diffusion method.

The structures appear in SMILES notation. Bounds are passed on as bounds.

Regarding `CCOC(=O)C1C(c2ccccc2)CC2C(NC(=O)/C=C/c3ccccc3)C(=O)N21` (stereo not drawn), the “inhibition zone (IZ)” value in the test on Klebsiella pneumoniae, in the test with Escherichia coli, in the test on Bacillus subtilis and in the test on Staphylococcus was <6 mm each time.

Turning to `CCOC(=O)C1C(c2ccccc2)CC2C(NC(=O)COc3ccccc3)C(=O)N21` (stereo not drawn), the “inhibition zone (IZ)” value in the test on Klebsiella pneumoniae, in the test on Escherichia coli, with Bacillus subtilis and in the test with Staphylococcus was <6 mm in each case.

For the molecule `CCOC(=O)C1C(c2ccccc2)CC2C(NC(=O)Cc3ccccc3)C(=O)N21` (stereo not drawn), the “inhibition zone (IZ)” value in the test with Klebsiella pneumoniae, in the test on Escherichia coli, in the test on Bacillus subtilis and in the test on Staphylococcus was <6 mm each time.

In the case of `CCOC(=O)C1C(c2ccccc2)CC2C(NC(=O)c3ccccc3)C(=O)N21` (stereo not drawn), the “inhibition zone (IZ)” value in the test with Klebsiella pneumoniae, with Escherichia coli, with Bacillus subtilis and in the test with Staphylococcus was <6 mm each time.

Take `CCOC(=O)C(Cc1ccccc1)N1C(=O)C(NC(=O)/C=C/c2ccccc2)C1/C=C/c1ccccc1` (stereo not drawn): the “inhibition zone (IZ)” value in the test with Klebsiella pneumoniae, in the test on Escherichia coli, in the test on Bacillus subtilis and with Staphylococcus was <6 mm throughout.

Take `CCOC(=O)C(Cc1ccccc1)N1C(=O)C(NC(=O)COc2ccccc2)C1/C=C/c1ccccc1` (stereo not drawn): the “inhibition zone (IZ)” value is <6 mm with Klebsiella pneumoniae, <6 mm with Escherichia coli, >12 mm with Bacillus subtilis and 9 mm in the test on Staphylococcus.

Turning to `CCOC(=O)C(Cc1ccccc1)N1C(=O)C(NC(=O)Cc2ccccc2)C1/C=C/c1ccccc1` (stereo not drawn), the “inhibition zone (IZ)” value with Klebsiella pneumoniae was <6 mm; with Escherichia coli it was <6 mm; with Bacillus subtilis, >12 mm; in the test on Staphylococcus, 9 mm.

In the case of `CCOC(=O)C(Cc1ccccc1)N1C(=O)C(NC(=O)c2ccccc2)C1/C=C/c1ccccc1` (stereo not drawn), the “inhibition zone (IZ)” value in the test with Klebsiella pneumoniae, in the test on Escherichia coli, in the test with Bacillus subtilis and in the test on Staphylococcus was <6 mm in each case.

Turning to `CCOC(=O)C1C(c2ccccc2)CC2C(NN3C(=O)c4ccccc4C3=O)C(=O)N21` (stereo not drawn), the “inhibition zone (IZ)” value in the test on Klebsiella pneumoniae, in the test on Escherichia coli, with Bacillus subtilis and with Staphylococcus was <6 mm throughout.

As for `CCOC(=O)C(Cc1ccccc1)N1C(=O)C(NN2C(=O)c3ccccc3C2=O)C1CO` (stereo not drawn), the “inhibition zone (IZ)” value with Klebsiella pneumoniae, with Escherichia coli, in the test with Bacillus subtilis and in the test on Staphylococcus was <6 mm in each case.

Consider `CCOC(=O)C(Cc1ccccc1)N1C(=O)C(NN2C(=O)c3ccccc3C2=O)C1C=O` (stereo not drawn), for which the “inhibition zone (IZ)” value in the test with Klebsiella pneumoniae, in the test on Escherichia coli, in the test on Bacillus subtilis and in the test on Staphylococcus was <6 mm each time.

`CCOC(=O)C(Cc1ccccc1)N1C(=O)C(NN2C(=O)c3ccccc3C2=O)C1/C=C/c1ccccc1` (stereo not drawn): the “inhibition zone (IZ)” value in the test with Klebsiella pneumoniae is on record as <6 mm; in the test on Escherichia coli, <6 mm; in the test on Bacillus subtilis, >12 mm; in the test with Staphylococcus, 9 mm.
